In PubChem BioAssay AID504726 (Broad Institute, 2011):
Calls of active or inactive are those of the source.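 Rule for the calls: active = fitted half-maximal concentration for a cytotoxic signal drop no higher than ten times the top valid dose tested; inconclusive = flat curve between -70 and -30 percent, or an unreliable fit; inactive = flat within 30 percent, signal rise, or potency beyond limit.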

Assay: viability loss in HeLa cells – cell-based, 24 h, cherry-picked samples, cytotoxicity control, dose response (AID 504726);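 note: 0% = DMSO neutral controls and -100% = mitoxantrone positive controls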
Conditions: HeLa viability, CellTiter-Glo ATP luminescence, 24 h; at 35 µM (top of the series)
With `CN1CC=C2C(C#N)=C(N)C(C#N)(C#N)[C@H](c3ccoc3)[C@H]2C1` the activity change, negative = cytotoxicity was 0.209% (inactive). With `O=C(COc1ccccc1Cc1ccccc1)NCCCN1CCOCC1` the activity change, negative = cytotoxicity was -9.39% (inactive). For `O=C(CN(Cc1ccccc1F)C(=O)c1csnn1)NCc1ccc2c(c1)OCO2`, the activity change, negative = cytotoxicity was -9.28% (inactive). With `Cc1ccsc1/C=N/NC(=O)Cc1ccc(Cl)cc1` the activity change, negative = cytotoxicity was 1.7% (inactive). In the case of `Cc1c(C)n(CCC(=O)O)c2ccccc12`, the activity change, negative = cytotoxicity is reported as -6.21% (inactive). With `CCc1ccc(C2CC(c3cccc(Cl)c3)n3nc(N)nc3N2)cc1` (centres undefined) the activity change, negative = cytotoxicity was -1.95% (inactive). With `O=C(O)/C(=C\c1cccs1)Sc1nnc(-c2ccc(F)cc2)o1` the activity change, negative = cytotoxicity was 0.075% (inactive). In the case of `CC1CCCN(C(=O)C(=O)c2cn(CC(=O)N3CCCCCC3)c3ccccc23)C1` (centres undefined), the activity change, negative = cytotoxicity is reported as -6.83% (inactive). With `Nc1c(/C=C2/C=CC(=O)C(O)=C2)c(=O)nc2sc(CC(=O)N3CCCC3)nn12` the activity change, negative = cytotoxicity was -5.49% (inactive). In the case of `Nc1ccc2nc3c(=O)[nH]c(=S)[nH]c3nc2c1`, the activity change, negative = cytotoxicity is reported as -3.49% (inactive). For `CCc1nnc(NC(=O)c2cccc(S(=O)(=O)N(C)c3ccccc3)c2)s1`, the activity change, negative = cytotoxicity was -7.23% (inactive). In the case of `Cc1ccc(C)c(N2CCN(C(=O)c3cc4ccccn4n3)CC2)c1`, the activity change, negative = cytotoxicity is reported as 3.79% (inactive). With `C/C(=N/NC(=O)c1cc(O)c(O)c(O)c1)c1ccc([N+](=O)[O-])cc1` the activity change, negative = cytotoxicity was -1.35% (inactive). With `Cc1ccc(CSc2ncnc3onc(C)c23)cc1` the activity change, negative = cytotoxicity was -13.2% (inactive). With `COc1ccc(Cn2nnc3c(=O)[nH]c(C4CCCN(C(=O)c5ccccc5)C4)nc32)cc1` (centres undefined) the activity change, negative = cytotoxicity was -5.25% (inactive). For `CCSc1nnc(Cc2cc(=O)[nH]c(=O)[nH]2)n1-c1ccc(F)cc1`, the activity change, negative = cytotoxicity was -15.6% (inactive). With `O=C(O)c1ccccc1NC(=O)c1cc(-c2ccccc2)nc2ccccc12` the activity change, negative = cytotoxicity was -2.32% (inactive). In the case of `NNC(=S)Nc1ccc(S(=O)(=O)N2CCOCC2)cc1`, the activity change, negative = cytotoxicity is reported as 0.037% (inactive). In the case of `CN(c1ccccc1)S(=O)(=O)c1cccc(NS(=O)(=O)c2cccc(C(=O)O)c2)c1`, the activity change, negative = cytotoxicity is reported as 3.74% (inactive). For `Cc1c(Cl)cccc1NS(=O)(=O)c1ccc2c(c1)C1C=CCC1C(c1ccc(C(=O)O)cc1)N2` (centres undefined), the activity change, negative = cytotoxicity was -10.8% (inactive). For `COc1[nH]c(/N=C/c2ccccc2)c(C#N)c1C#N`, the activity change, negative = cytotoxicity was -1.43% (inactive). In the case of `CCOC(=O)CN1NC2(CCCCCC2)NC1=S`, the activity change, negative = cytotoxicity is reported as -1.79% (inactive). With `Nc1cc(N)nc(SCC(=O)N2CCCCC2)n1` the activity change, negative = cytotoxicity was 4.42% (inactive). For `O=C(O)c1cccc(-n2cccc2/C=C2/NC(=O)N(c3ccc(Cl)cc3)C2=O)c1`, the activity change, negative = cytotoxicity was 0.035% (inactive). In the case of `Fc1ccc(C2=CC(c3ccc(Br)o3)n3ncnc3N2)cc1` (centres undefined), the activity change, negative = cytotoxicity is reported as -14.5% (inactive). In the case of `O=C(CC1CCCC1)N1CCN(S(=O)(=O)c2ccccc2)CC1`, the activity change, negative = cytotoxicity is reported as -13.4% (inactive). For `Cn1cc(C(=O)c2ccc(Cl)cc2Cl)cc1C(=O)N/N=C(\N)COc1ccccc1`, the activity change, negative = cytotoxicity was -7.82% (inactive). With `CN1C(=O)NC(c2ccccc2[N+](=O)[O-])C2=C1CCCC2=O` (centres undefined) the activity change, negative = cytotoxicity was -9.55% (inactive). For `Cc1cccc(N2C(=O)c3cccc4c(N)ccc(c34)C2=O)c1`, the activity change, negative = cytotoxicity was 3.39% (inactive). For `COc1cc(OC)cc(-c2c(-c3ccsc3)c3cc(Br)ccc3n2C)c1`, the activity change, negative = cytotoxicity was -23.6% (inactive). For `O=C(C1CCCO1)N1CCN(c2ncccn2)CC1` (centres undefined), the activity change, negative = cytotoxicity was -0.396% (inactive). For `Cc1nn(CC(=O)c2ccc(Br)s2)c(C)c1[N+](=O)[O-]`, the activity change, negative = cytotoxicity was -2.98% (inactive). With `Cc1cc2nc(SCCN3CCOCC3)[nH]c2cc1C` the activity change, negative = cytotoxicity was -23.1% (inactive). In the case of `CCN(CC)c1ccc2cc(S(=O)(=O)c3ccc(Cl)cc3)c(=O)oc2c1`, the activity change, negative = cytotoxicity is reported as -13.6% (inactive). In the case of `Cc1noc(C)c1C(=O)N1CCN(c2ccc(OCc3ccccc3)cc2)CC1`, the activity change, negative = cytotoxicity is reported as -3.67% (inactive). In the case of `CCC(=O)Oc1ccc2c(c1)O/C(=C\c1ccco1)C2=O`, the activity change, negative = cytotoxicity is reported as 4.02% (inactive). With `O=C(O)c1ccc2c(c1)C(=O)/C(=C\c1ccco1)C2=O` the activity change, negative = cytotoxicity was 3.44% (inactive). In the case of `CCCCN(C(=O)C(C)Oc1ccc(Br)cc1)c1c(N)n(CC(C)C)c(=O)[nH]c1=O` (centres undefined), the activity change, negative = cytotoxicity is reported as 3.21% (inactive). For `NC(=O)c1ccc(NC(=O)C2COc3ccccc3O2)cc1` (centres undefined), the activity change, negative = cytotoxicity was -1.55% (inactive). In the case of `Cc1nc2c(=O)[nH]c(=S)[nH]c2[nH]c1=O`, the activity change, negative = cytotoxicity is reported as 1.86% (inactive). For `COc1ccc(NS(=O)(=O)c2ccc(C)c(C(=O)N(C)Cc3ccc(OC)cc3OC)c2)cc1`, the activity change, negative = cytotoxicity was -7.58% (inactive). In the case of `O=C(N/N=C/c1ccc(N2CCOCC2)cc1)c1ccccn1`, the activity change, negative = cytotoxicity is reported as -14.2% (inactive). In the case of `COc1ccccc1CNC(=O)C(=O)NCC1CCCN1S(=O)(=O)c1cccs1` (centres undefined), the activity change, negative = cytotoxicity is reported as -4.86% (inactive). With `O=C(O)C(Cc1ccccc1)N1C(=O)/C(=C/C=C/c2ccco2)SC1=S` (centres undefined) the activity change, negative = cytotoxicity was -11.4% (inactive). In the case of `O=c1[nH]c(=O)n(C2CCCCC2)c(O)c1C=Nc1ccc(N2CCOCC2)cc1`, the activity change, negative = cytotoxicity is reported as -11.5% (inactive). For `COc1cccc(-c2cc(C(=O)N3CCN(S(=O)(=O)c4ccccc4)CC3)[nH]n2)c1`, the activity change, negative = cytotoxicity was -17.3% (inactive). With `Cn1cc(/C=C2\C(=O)NC(=O)N(c3ccccc3)C2=O)c2ccccc21` the activity change, negative = cytotoxicity was -26.5% (inactive). With `O=C(OCCN1C(=O)c2cccc3c(N4CCOCC4)ccc(c23)C1=O)c1ccc(Cl)cc1` the activity change, negative = cytotoxicity was -11.7% (inactive). For `CCOC(=O)c1ccc[n+](CC(=O)c2ccc(OC)cc2)c1`, the activity change, negative = cytotoxicity was -1.73% (inactive). With `O=C(NCCCN1CCCC1=O)c1ccc2c(c1)ncn2C1CCCCC1` the activity change, negative = cytotoxicity was -5.77% (inactive). For `O=C(O)Cc1c[nH]c2cccc(O)c12`, the activity change, negative = cytotoxicity was -14.7% (inactive). In the case of `COc1ccc(NS(=O)(=O)c2cccc3ccccc23)cc1`, the activity change, negative = cytotoxicity is reported as -7.48% (inactive). With `CC(C)(C)OC(=O)C[C@@H]1C/C=C\C[C@H](CC(=O)N(CCO)Cc2ccccc2)C(=O)N[C@@H](c2ccccc2)COC1=O` the activity change, negative = cytotoxicity was -9.09% (inactive). In the case of `CCN(CC)C(=O)C1c2ccccc2Oc2ccccc21`, the activity change, negative = cytotoxicity is reported as -12.1% (inactive). For `CC(=O)Oc1ccc2c(c1)Oc1cc(OC(C)=O)ccc1C21OC(=O)c2ccccc21`, the activity change, negative = cytotoxicity was -1.71% (inactive). For `C=CCN1C(=O)/C(=c2\sc3nc(=O)c(Cc4ccccc4Cl)nn3c2=O)c2ccccc21`, the activity change, negative = cytotoxicity was -9.87% (inactive). For `CCOC(=O)c1c(/N=C/c2c(O)n(-c3cccc(C)c3)c(=O)[nH]c2=O)sc2c1CCCC2`, the activity change, negative = cytotoxicity was -22.9% (inactive). With `CCOc1ccc(-n2c(Cc3cc(=O)[nH]c(=O)[nH]3)nnc2SCc2cccnc2)cc1` the activity change, negative = cytotoxicity was -1.5% (inactive). In the case of `Cc1sc2nnn(CC(=O)N3CCN(C(=O)c4ccco4)CC3)c(=O)c2c1C`, the activity change, negative = cytotoxicity is reported as -4.76% (inactive). With `CCCCn1c(N)c(N(CCOC)C(=O)c2cc(C)oc2C)c(=O)[nH]c1=O` the activity change, negative = cytotoxicity was -6.37% (inactive). In the case of `CC(C)C(=O)N1CCN(c2ccccc2NC(=S)NC(=O)c2ccco2)CC1`, the activity change, negative = cytotoxicity is reported as -12.9% (inactive). For `Cc1ccc(NC(=O)CN2C(=O)N/C(=C/c3cc(C)n(-c4ccc(C(=O)O)cc4)c3C)C2=O)cc1`, the activity change, negative = cytotoxicity was -5.94% (inactive). With `CC(C)CC(=O)Nc1ccc(S(=O)(=O)N2CC3CC(C2)c2cccc(=O)n2C3)cc1` (centres undefined) the activity change, negative = cytotoxicity was 1.91% (inactive). With `COc1cc(-c2ccc(Nc3ccccc3C(=O)O)c(OC)c2)ccc1Nc1ccccc1C(=O)O` the activity change, negative = cytotoxicity was -14.8% (inactive). With `CCN(CC)S(=O)(=O)N1CCN(S(=O)(=O)N2CCOCC2)CC1` the activity change, negative = cytotoxicity was 1.89% (inactive). In the case of `NC(=S)COc1ccccc1`, the activity change, negative = cytotoxicity is reported as -7.95% (inactive). For `Fc1ccc(-c2cc(C(F)(F)F)nc(-n3cc(Cl)cn3)n2)cc1`, the activity change, negative = cytotoxicity was -12% (inactive). In the case of `O=C(NC12CC3CC(CC(C3)C1)C2)N1CCN(c2ncccn2)CC1`, the activity change, negative = cytotoxicity is reported as 12.9% (inactive). In the case of `O=C(NCCN1CCN(C(=O)c2cccs2)CC1)c1cccs1`, the activity change, negative = cytotoxicity is reported as -5.34% (inactive). For `Cc1nc(Cl)c2c(n1)NC1=C(O2)C(=O)CCC1`, the activity change, negative = cytotoxicity was -16.2% (inactive). In the case of `CC(Oc1ccccc1)c1nnc(N)s1` (centres undefined), the activity change, negative = cytotoxicity is reported as -3.11% (inactive). With `CCOc1ccc(S(=O)(=O)N(C)c2ccc(OCC(=O)NC3=NCCS3)cc2)cc1` the activity change, negative = cytotoxicity was -12.3% (inactive). With `O=S(=O)(O)c1cc(O)c2cc(Nc3ccccc3)ccc2c1` the activity change, negative = cytotoxicity was -1.35% (inactive). For `O=C(Nc1cc(Cl)ccc1-n1cncn1)c1cccs1`, the activity change, negative = cytotoxicity was -6.29% (inactive). In the case of `O=C(Cn1nc(Cc2ccncc2)c2ccccc2c1=O)N1CCN(C(=O)c2ccco2)CC1`, the activity change, negative = cytotoxicity is reported as -4.22% (inactive). In the case of `COCCN(C(=O)CN1CCCc2ccccc21)c1c(N)n(Cc2ccccc2)c(=O)[nH]c1=O`, the activity change, negative = cytotoxicity is reported as 3.65% (inactive). For `COc1cc(NC(=O)c2ccc(CNc3c(N4CCCC4)c(=O)c3=O)cc2)cc(OC)c1OC`, the activity change, negative = cytotoxicity was -7.17% (inactive). In the case of `CCOC(=O)C1CCCN(C(=O)C2c3ccccc3Oc3ccccc32)C1` (centres undefined), the activity change, negative = cytotoxicity is reported as -6.62% (inactive). With `COc1ccc(CCNC(=O)CNC(=O)Cn2ccc3ccccc3c2=O)cc1OC` the activity change, negative = cytotoxicity was 2.19% (inactive). In the case of `CCCc1cc(=O)oc2cc(C)cc(OCC(=O)O)c12`, the activity change, negative = cytotoxicity is reported as -7.49% (inactive). For `CC(C)Cn1c(N)c(C(=O)CSc2nnc(-c3ccco3)n2C)c(=O)n(C)c1=O`, the activity change, negative = cytotoxicity was -1.08% (inactive). In the case of `CCOC(=O)C1=C(COC(=O)c2ccc([N+](=O)[O-])s2)NC(=O)NC1C` (centres undefined), the activity change, negative = cytotoxicity is reported as -1% (inactive). In the case of `C=C1c2cccc(O)c2C(O)=C2C(=O)[C@]3(O)C(O)=C(C(N)=O)C(=O)[C@@H](N(C)C)[C@@H]3[C@@H](O)[C@H]12`, the activity change, negative = cytotoxicity is reported as -2.76% (inactive). In the case of `Nc1ccc2nc3c(=O)n(C4CCCCC4)c(=O)[nH]c3nc2c1`, the activity change, negative = cytotoxicity is reported as -0.337% (inactive).
